# Where a name gives a salt, the structure may show the parent alone.
# What was measured:
# Format in all cases: cell-based
# [1] = test system: Ent. cloacae V-8; assay: Antibacterial activity (MIC), Ent. cloacae V-8; settings: Enterobacter cloacae, V8, read-out: MIC (minimum effective inhibitory concentration)
# From the text: (§1) Antibacterial activities (minimum effective inhibitory concentrations) of the compounds of formula I are shown in the following table in comparison with those of cefatazidime having the structure [drawing 5] and cefmenoxime having the structure [drawing 6]
# [2] = test system: Proteus morgani IID 602; assay: Antibacterial activity (MIC), Proteus morgani IID 602; settings: Proteus morgani IID 602; read-out: MIC (minimum effective inhibitory concentration)
# From the text: as §1
# [3] = test system: Kleb. pneumoniae ATCC 10031; assay: Antibacterial activity (MIC), Kleb. pneumoniae ATCC 10031; settings: Klebsiella pneumoniae, ATCC10031, read-out: MIC (minimum effective inhibitory concentration)
# From the text: as §1
# [4] = test system: Serr. marcescens IID 620; assay: Antibacterial activity (MIC), Serr. marcescens IID 620; settings: Serratia marcescens, IID620; Serr. marcescens IID 620; read-out: MIC (minimum effective inhibitory concentration)
# From the text: as §1
# [5] = test system: Staph. aureus Terashima; assay: Antibacterial activity (MIC), Staph. aureus Terashima; settings: Staphylococcus aureus, read-out: MIC (minimum effective inhibitory concentration)
# From the text: as §1
# [6] = test system: Ps. aeruginosa NCTC 10490; assay: Antibacterial activity (MIC), Ps. aeruginosa NCTC 10490; settings: Pseudomonas aeruginosa, NCTC10490, read-out: MIC (minimum effective inhibitory concentration)
# From the text: as §1
# [7] = test system: E. coli Ebara; assay: Antibacterial activity (MIC), E. coli Ebara; settings: Escherichia coli; E. coli Ebara; read-out: MIC (minimum effective inhibitory concentration)
# From the text: as §1
# [8] = test system: Staph. aureus ATCC 6538P; assay: Antibacterial activity (MIC), Staph. aureus ATCC 6538P; settings: Staphylococcus aureus, ATCC6538P, read-out: MIC (minimum effective inhibitory concentration)
# From the text: as §1
# [9] = test system: Staph. aureus Smith; assay: Antibacterial activity (MIC), Staph. aureus Smith; settings: Staphylococcus aureus, read-out: MIC (minimum effective inhibitory concentration)
# From the text: as §1
# [10] = test system: Ent. aerogenes ATCC 13048 (MS-1); assay: Antibacterial activity (MIC), Ent. aerogenes ATCC 13048 (MS-1); settings: Klebsiella aerogenes, ATCC13048, read-out: MIC (minimum effective inhibitory concentration)
# From the text: as §1
# [11] = test system: Ps. aeruginosa IID 5142; assay: Antibacterial activity (MIC), Ps. aeruginosa IID 5142; settings: Pseudomonas aeruginosa, IID5142, read-out: MIC (minimum effective inhibitory concentration)
# From the text: as §1
Compound,MIC [1] [µg/mL],MIC [2] [µg/mL],MIC [3] [µg/mL],MIC [4] [µg/mL],MIC [5] [µg/mL],MIC [6] [µg/mL],MIC [7] [µg/mL],MIC [8] [µg/mL],MIC [9] [µg/mL],MIC [10] [µg/mL],MIC [11] [µg/mL]
"Nc1nc(CO/N=C(\C(=O)NC2C(=O)N3C(C(=O)[O-])=C(C[n+]4cccc(CNC=O)c4)CS[C@H]23)c2csc(N)n2)cs1 (stereo partly drawn) [Example 22, (Z)-7-{α-(2-amino-4-thiazolyl)-α-[(2-amino-4-thiazolyl)methoxyimino]acetamido}-3-(3-formamidomethyl-1-pyridiniomethyl)-3-cephem-4-carboxylate]",6.25,1.56,≤ 0.2,0.78,3.13,1.56,1.56,1.56,1.56,3.13,12.5
"Nc1nc(CO/N=C(\C(=O)NC2C(=O)N3C(C(=O)[O-])=C(C[n+]4ccccc4)CSC23)c2csc(N)n2)cs1 (stereo not drawn) [Example 8, (Z)-7-{α-(2-amino-4-thiazolyl)-α-[(2-amino-4-thiazolyl)methoxyimino]acetamido}-3-(1-pyridiniummethyl)-3-cephem-4-carboxylate]",6.25,0.78,≤ 0.2,0.78,1.56,≤ 0.2,0.78,1.56,0.78,1.56,3.13
"NC(=O)c1cc[n+](CC2=C(C(=O)[O-])N3C(=O)C(NC(=O)/C(=N\OCc4csc(N)n4)c4csc(N)n4)C3SC2)cc1 (stereo not drawn) [Example 9, (Z)-7-{α-(2-amino-4-thiazolyl)-α-[(2-amino-4-thiazolyl)methoxyimino]acetamido}-3-(4-carbamoyl-1-pyridiniummethyl)-3-cephem-4-carboxylate]",3.13,0.39,≤ 0.2,0.78,1.56,0.39,≤ 0.2,1.56,1.56,1.56,6.25
"CO/N=C(\C(=O)N[C@@H]1C(=O)N2C(C(=O)O)=C(CSc3nnnn3C)CS[C@H]12)c1csc(N)n1 [CX, Cefmenoxime, reference compound]",3.13,≤ 0.2,≤ 0.2,0.2,12.5,1.56,0.2,3.13,6.25,–,100
"Nc1nc(CO/N=C(\C(=O)NC2C(=O)N3C(C(=O)[O-])=C(C[n+]4cccc(S(=O)(=O)O)c4)CSC23)c2csc(N)n2)cs1 (stereo not drawn) [Example 17, (Z)-7-{α-(2-amino-4-thiazolyl)-α-[(2-amino-4-thiazolyl)methoxyimino]acetamido}-3-(3-sulfonate-1-pyridiniomethyl)-3-cephem-4-carboxylate mono-sodium salt]",6.25,1.56,0.39,0.39,12.5,1.56,12.5,6.25,6.25,3.13,25
Cn1nnnc1SCC1=C(C(=O)O)N2C(=O)C(NC(=O)/C(=N\OCc3csc(N)n3)c3csc(N)n3)C2SC1 (stereo not drawn) [Example 6],1.56,0.39,≤ 0.2,0.39,1.56,≤ 0.2,≤ 0.2,0.78,0.78,1.56,12.5
"CSC1=C(C(=O)O)N2C(=O)C(NC(=O)/C(=N\OCc3csc(N)n3)c3csc(N)n3)[C@H]2SC1 (stereo partly drawn) [3(b), (Z)-7-{α-(2-amino-4-thiazolyl)-α-[(2-amino-4-thiazolyl)methoxyimino]acetamido}-3-methylthio-3-cephem-4-carboxylic acid]",3.13,1.56,≤ 0.2,1.56,1.56,1.56,3.13,0.78,0.78,6.25,–
"Nc1nc(CON=C(C(=O)NC2C(=O)N3C(C(=O)[O-])=C(C[n+]4ccc(C(=O)NO)cc4)CS[C@H]23)c2csc(N)n2)cs1 (stereo partly drawn) [Example 23, (Z)-7-{α-(2-amino-4-thiazolyl)-α-[(2-amino-4-thiazolyl)methoxyimino]acetamido}-3-(4-hydroxycarbamoyl-1-pyridiniomethyl)-3-cephem-4-carboxylate]",3.13,0.78,≤ 0.2,0.39,3.13,0.39,0.39,3.13,6.25,1.56,6.25
"Nc1ccc[n+](CC2=C(C(=O)[O-])N3C(=O)C(NC(=O)/C(=N\OCc4csc(N)n4)c4csc(N)n4)[C@H]3SC2)c1 (stereo partly drawn) [Example 19, (Z)-7-{α-(2-amino-4-thiazolyl)-α-[(2-amino-4-thiazolyl)methoxyimino]acetamido}-3-(3-amino-1-pyridiniomethyl)-3-cephem-4-carboxylate]",3.13,0.78,≤ 0.2,≤ 0.2,0.78,0.78,0.39,0.78,0.78,1.56,6.25
"Nc1nc(CO/N=C(\C(=O)NC2C(=O)N3C(C(=O)[O-])=C(C[n+]4cccc(CC(=O)O)c4)CSC23)c2csc(N)n2)cs1 (stereo not drawn) [Example 12, (Z)-7-{α-(2-amino-4-thiazolyl)-α-[(2-amino-4-thiazolyl)methoxyimino]acetamido}-3-(3-carboxylatemethyl-1-pyridiniomethyl)-3-cephem-4-carboxylate mono-sodium salt]",3.13,0.78,≤ 0.2,≤ 0.2,6.25,1.56,1.56,3.13,3.13,1.56,25
"CC(=O)OCC1=C(C(=O)O)N2C(=O)C(NC(=O)/C(=N\OCc3csc(N)n3)c3csc(N)n3)[C@H]2SC1 (stereo partly drawn) [2(b), (Z)-7-{α-(2-amino-4-thiazolyl)-α-[(2-amino-4-thiazolyl)methoxyimino]acetamido}-3-acetoxymethyl-3-cephem-4-carboxylic acid]",3.13,0.39,≤ 0.2,0.78,3.13,0.39,≤ 0.2,1.56,1.56,1.56,25
"CC1=C(C(=O)O)N2C(=O)C(NC(=O)/C(=N\OCc3csc(N)n3)c3csc(N)n3)[C@H]2SC1 (stereo partly drawn) [1(b), (Z)-7-{α-(2-amino-4-thiazolyl)-α-[(2-amino-4-thiazolyl)methoxyimino]acetamido}-3-methyl-3-cephem-4-carboxylic acid]",6.25,3.13,≤ 0.2,1.56,12.5,6.25,1.56,3.13,6.25,6.25,–

# From US4608373A, “Cephem compounds” (Yamanouchi Pharmaceutical Co., Ltd., priority 1982, dated 1986)
